The values that follow are results of earlier work, collected in patent US20100112181A1, “Recovery of Antioxidants from Decaffeination Process” (priority 2008, published 2010).

For this data set the following is noted: reported by K. Iwai et al., 2004.

Turning to dicaffeoylquinic acids [di-CQA's], the “antioxidant activity relative to CQA's (in words)” value is “higher antioxidant activity than the CQA's”.
